Here are results for nine compounds from patent publication US11780830B2, “Triazolone derivatives or salts thereof and pharmaceutical compositions comprising the same” (YUHAN CORPORATION, priority 2018, dated 2023).

Structures can show the parent of a compound that is named as a salt.

Type in all cases: biochemical
Experiment [1] has as its target T1, recombinant human VAP-1 (Homo sapiens, UniProt Q16853).
T1 construct: purchased R&D systems
T1 sequence (Q16853 1-763): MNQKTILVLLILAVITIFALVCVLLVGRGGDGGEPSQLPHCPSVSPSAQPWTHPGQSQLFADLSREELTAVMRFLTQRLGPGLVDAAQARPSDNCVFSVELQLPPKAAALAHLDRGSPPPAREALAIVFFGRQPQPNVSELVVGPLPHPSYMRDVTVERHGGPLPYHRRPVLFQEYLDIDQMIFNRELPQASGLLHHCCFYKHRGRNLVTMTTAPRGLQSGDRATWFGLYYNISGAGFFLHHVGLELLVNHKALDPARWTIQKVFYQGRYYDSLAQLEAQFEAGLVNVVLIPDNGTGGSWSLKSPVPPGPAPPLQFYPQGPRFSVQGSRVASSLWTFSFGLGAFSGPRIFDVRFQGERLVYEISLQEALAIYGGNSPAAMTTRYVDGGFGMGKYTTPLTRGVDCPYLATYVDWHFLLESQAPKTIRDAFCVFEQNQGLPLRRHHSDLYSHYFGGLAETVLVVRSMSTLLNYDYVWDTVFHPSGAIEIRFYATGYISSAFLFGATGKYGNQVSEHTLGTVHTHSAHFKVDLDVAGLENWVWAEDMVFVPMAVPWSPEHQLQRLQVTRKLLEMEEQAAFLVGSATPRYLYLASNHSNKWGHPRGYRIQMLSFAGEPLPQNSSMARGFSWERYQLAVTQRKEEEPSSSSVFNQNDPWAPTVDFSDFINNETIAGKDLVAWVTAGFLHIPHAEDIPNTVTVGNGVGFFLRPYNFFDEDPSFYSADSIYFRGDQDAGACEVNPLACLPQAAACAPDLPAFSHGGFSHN
Kind of experiment: Activity on recombinant human VAP-1, HRP-coupled Amplex Red hydrogen peroxide assay. The conditions noted are these: substrate 1 mM benzylamine; compound incubated with enzyme at 37° C. for 30 minutes; pH 7.4; read-out: Inhibitory Activity (IC50, nM) human VAP-1. Here is the method: (§1) The compounds according to the present technology were evaluated in terms of activity on recombinant human VAP-1 (R&D systems) by measuring the level of hydrogen peroxide in horseradish peroxidase (HRP)-coupled reaction using Amplex Red Hydrogen Peroxide Assay Kit (Molecular Probes, Invitrogen, USA). The experiment was carried out at room temperature using benzylamine as a substrate. In the HRP-coupled reaction, hydrogen peroxide oxidation of 10-acetyl-3,7-dihydroxyphenoxazine (Amplex Red reagent) produces resorufin, which is a highly fluorescent compound. Briefly, the test compound was dissolved in dimethyl sulfoxide (DMSO) at a concentration of 20 mM. The dose-response assessment was made by 1:3 serial dilution in DMSO, thereby creating an 8 point curve. The concentration of the upper part was controlled according to the efficacy of the compounds, followed by dilution with a reaction buffer solution to obtain a final DMSO concentration less than 1%. To each well of a 96 black well plate, human VAP-1 purified in 50 mM sodium phosphate buffer solution (pH7.4) was added. The test compounds dissolved in DMSO were incubated with the human VAP-1 enzymes at 37° C. for 30 minutes. After 30-minute incubation, each well is added with a reaction mixture containing 200 uM Amplex Red reagent prepared from 50 mM sodium phosphate buffer solution (pH 7.4), 1 mM benzylamine, and 1 U/mL HRP. Fluorescence intensity was measured at several time points during 1-2 hours using a microplate reader (Flexstation3, Molecular Devices) under the wavelength condition exciting at 544 nm and reading the emission at 590 nm. The inhibitory effect of the compounds was measured as a decrease (%) in the signal rate as compared to the control group without any inhibitor (only diluted DMSO). Data was fixed to a logistic model with four variables and IC50 value was calculated using GraphPad Prism program.

Experiment [2] addresses T2, recombinant human DAO (diamine oxidase) (Homo sapiens, UniProt P19801).
T2 construct: purchased R&D systems
T2 sequence (P19801 20-751): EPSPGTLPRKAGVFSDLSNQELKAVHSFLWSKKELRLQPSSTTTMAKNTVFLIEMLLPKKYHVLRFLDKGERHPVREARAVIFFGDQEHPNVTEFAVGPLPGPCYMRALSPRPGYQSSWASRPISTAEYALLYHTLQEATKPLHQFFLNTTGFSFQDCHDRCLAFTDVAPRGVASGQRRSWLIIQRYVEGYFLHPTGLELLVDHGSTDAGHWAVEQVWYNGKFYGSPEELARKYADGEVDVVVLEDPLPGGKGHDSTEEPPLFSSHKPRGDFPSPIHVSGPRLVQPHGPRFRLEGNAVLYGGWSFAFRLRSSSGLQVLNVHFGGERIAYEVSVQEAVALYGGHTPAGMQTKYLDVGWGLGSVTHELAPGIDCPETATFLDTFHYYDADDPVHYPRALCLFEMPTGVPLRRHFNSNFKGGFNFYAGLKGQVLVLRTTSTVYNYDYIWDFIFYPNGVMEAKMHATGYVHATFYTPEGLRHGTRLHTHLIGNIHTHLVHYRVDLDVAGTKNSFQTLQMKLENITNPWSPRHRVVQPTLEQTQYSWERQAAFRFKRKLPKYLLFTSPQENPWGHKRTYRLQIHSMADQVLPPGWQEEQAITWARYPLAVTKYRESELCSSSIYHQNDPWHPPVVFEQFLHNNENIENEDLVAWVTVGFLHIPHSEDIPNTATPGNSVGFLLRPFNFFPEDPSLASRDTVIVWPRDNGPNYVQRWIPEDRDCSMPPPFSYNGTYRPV
The experiment is described as follows: Activity on recombinant human DAO, method similar to the VAP-1 assay. The conditions noted are these: substrate 1 mM putrescine; read-out: Inhibitory Activity (IC50, nM) DAO. Here is the method:
as §1
(§2) In addition, the compounds according to the present technology were evaluated in terms of activity on a recombinant human MAO-A (monoamine oxidase-A, Sigma-Aldrich) and a recombinant human MAO-B (monoamine oxidase-B, Sigma-Aldrich) by using as substrates, 0.5 mM tyramine and 1 mM benzylamine, respectively, with a method similar to the activity evaluation method for recombinant human VAP-1. The compounds according to the present technology were also evaluated in terms of activity on a recombinant human DAO (diamine oxidase, R&D systems) by using as a substrate 1 mM putrescine with a method similar to the activity evaluation method for recombinant human VAP-1.

Experiment [3] has as its target T3, recombinant human MAO-B (monoamine oxidase-B) (Homo sapiens, UniProt P27338).
T3 construct: purchased Sigma-Aldrich
T3 sequence (P27338 1-520): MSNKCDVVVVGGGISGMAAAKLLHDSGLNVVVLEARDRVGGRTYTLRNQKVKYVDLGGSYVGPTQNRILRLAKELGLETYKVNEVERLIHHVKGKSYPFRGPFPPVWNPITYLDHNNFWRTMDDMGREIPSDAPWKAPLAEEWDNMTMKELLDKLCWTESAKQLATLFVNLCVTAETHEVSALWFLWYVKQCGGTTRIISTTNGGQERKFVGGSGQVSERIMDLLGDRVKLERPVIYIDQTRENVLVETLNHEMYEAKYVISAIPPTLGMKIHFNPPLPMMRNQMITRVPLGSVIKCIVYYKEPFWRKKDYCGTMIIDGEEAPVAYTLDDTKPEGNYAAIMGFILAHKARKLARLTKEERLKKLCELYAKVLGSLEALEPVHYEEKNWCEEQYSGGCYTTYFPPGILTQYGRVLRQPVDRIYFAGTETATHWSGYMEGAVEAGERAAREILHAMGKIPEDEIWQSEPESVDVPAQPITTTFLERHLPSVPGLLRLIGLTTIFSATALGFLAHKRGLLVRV
The experiment is described as follows: Activity on recombinant human MAO-B, method similar to the VAP-1 assay. As to conditions: substrate 1 mM benzylamine; read-out: Inhibitory Activity (IC50, nM) MAO-B. Here is the method: as §1, §2

Experiment [4] addresses T4, recombinant human MAO-A (monoamine oxidase-A) (Homo sapiens, UniProt P21397).
T4 construct: purchased Sigma-Aldrich
T4 sequence (P21397 1-527): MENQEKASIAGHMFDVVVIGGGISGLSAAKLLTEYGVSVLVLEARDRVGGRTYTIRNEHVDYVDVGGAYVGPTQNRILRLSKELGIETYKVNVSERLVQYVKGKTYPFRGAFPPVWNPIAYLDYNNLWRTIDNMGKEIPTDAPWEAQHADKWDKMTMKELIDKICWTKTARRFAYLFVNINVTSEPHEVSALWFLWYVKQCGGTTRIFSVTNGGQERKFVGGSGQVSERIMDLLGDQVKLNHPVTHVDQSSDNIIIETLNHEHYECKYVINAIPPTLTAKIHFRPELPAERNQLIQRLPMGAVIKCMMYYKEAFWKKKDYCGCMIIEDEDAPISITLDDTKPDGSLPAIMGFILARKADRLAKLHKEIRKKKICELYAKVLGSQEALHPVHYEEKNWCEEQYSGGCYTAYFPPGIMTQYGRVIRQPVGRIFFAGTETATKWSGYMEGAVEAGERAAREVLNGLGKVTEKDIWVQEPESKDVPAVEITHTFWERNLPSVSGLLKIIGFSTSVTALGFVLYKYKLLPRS
The experiment is described as follows: Activity on recombinant human MAO-A, method similar to the VAP-1 assay. As to conditions: substrate 0.5 mM tyramine; read-out: Inhibitory Activity (IC50, nM) MAO-A. As for the experimental part:
as §1, §2

What is called IC50 is the concentration that gives 50% inhibition. For the compound `NC/C(=C\F)Cn1ncn(Cc2ccc(-c3cc4c(c(C(F)(F)F)c3)NC(=O)CC4)s2)c1=O` [Example 81, 6-[5-[[1-[(E)-2-(aminomethyl)-3-fluoro-allyl]-5-oxo-1,2,4-triazol-4-yl]methyl]-2-thienyl]-8-(trifluoromethyl)-3,4-dihydro-1H-quinolin-2-one], the concentration for half-maximal inhibition (IC50) in experiment [1] was 0.18 nM; in experiment [2], 68 nM; in experiment [3], 430 nM; in experiment [4], over 100000 nM.
On the same counts, the results for `NC/C(=C\F)Cn1ncn(Cc2ccc(-c3ccc4ocnc4c3)s2)c1=O` [Example 62, 2-[(2E)-2-(aminomethyl)-3-fluoroprop-2-en-1-yl]-4-[5-(1,3-benzooxazol-5-yl)thiophen-2-yl]methyl-2,4-dihydro-3H-1,2,4-triazol-3-one hydrochloride] are 3.7 nM, 530 nM, 310 nM and 2100 nM.
For `NC/C(=C/F)Cn1ncn(Cc2ccc(Br)s2)c1=O` [Example 1, 2-[(2Z)-2-(aminomethyl)-3-fluoroprop-2-en-1-yl]-4-[(5-bromothiophen-2-yl)methyl]-2,4-dihydro-3H-1,2,4-triazol-3-one], the IC50 in experiment [1] amounted to 5.7 nM; in experiment [2] it was 3020 nM; in experiment [3] it was 14 nM; in experiment [4], 18000 nM.
For `NC/C(=C\F)Cn1ncn(Cc2ccc(-c3ccc4nsnc4c3)s2)c1=O` [Example 192, 2-[(2E)-2-(aminomethyl)-3-fluoroprop-2-en-1-yl]-4-{[5-(2,1,3-benzothiadiazol-5-yl)thiophen-2-yl]methyl}-2,4-dihydro-3H-1,2,4-triazol-3-one], the half-inhibitory concentration (IC50) is 1 nM in experiment [1], 310 nM in experiment [2], 120 nM in experiment [3] and over 100000 nM in experiment [4].
On the same counts, the results for `NC/C(=C\F)Cn1ncn(Cc2ccc(-c3cnc4c(c3)CCCN4)s2)c1=O` [Example 111, 2-[(E)-2-(aminomethyl)-3-fluoro-allyl]-4-[[5-(5,6,7,8-tetrahydro-1,8-naphthyridin-3-yl)-2-thienyl]methyl]-1,2,4-triazol-3-one] are 0.6 nM, 530 nM, 5900 nM and over 100000 nM.
For the compound `NC/C(=C\F)Cn1ncn(Cc2ccc(-c3cc4c(cc3F)OCCN4)s2)c1=O` [Example 107, 2-[(E)-2-(aminomethyl)-3-fluoro-allyl]-4-[[5-(7-fluoro-3,4-dihydro-2H-1,4-benzoxazin-6-yl)-2-thienyl]methyl]-1,2,4-triazol-3-one], the concentration for half-maximal inhibition (IC50) in experiment [1] turned out to be 1.5 nM; in experiment [2], 960 nM; in experiment [3] it was 320 nM; in experiment [4], 18000 nM.
Take `CC(=O)Nc1nc2cc(-c3ccc(Cn4cnn(C/C(=C/F)CN)c4=O)s3)ccc2s1` [Example 189, N-{5-[5-({1-[(2E)-2-(aminomethyl)-3-fluoroprop-2-en-1-yl]-5-oxo-1,5-dihydro-4H-1,2,4-triazol-4-yl}methyl)thiophen-2-yl]-1,3-benzothiazol-2-yl}acetamide]: the IC50 turned out to be 0.7 nM in experiment [1], 780 nM in experiment [2], 420 nM in experiment [3] and 22500 nM in experiment [4].
Turning to `COc1ccc(-c2ccc(Cn3cnn(C/C(=C/F)CN)c3=O)s2)cn1` [Example 45, 2-[(2E)-2-(aminomethyl)-3-fluoroprop-2-en-1-yl]-4-[5-(6-methoxypyridin-3-yl)thiophen-2-yl]methyl-2,4-dihydro-3H-1,2,4-triazol-3-one hydrochloride], the 50% inhibitory concentration (IC50) was 1.1 nM in experiment [1], 330 nM in experiment [2], 400 nM in experiment [3] and over 100000 nM in experiment [4].
Consider `COc1cc(COc2c(C)cc(-c3ccc(Cn4cnn(C/C(=C/F)CN)c4=O)s3)cc2C)cc(OC)c1` [Example 18, 2-[(2E)-2-(aminomethyl)-3-fluoroprop-2-en-1-yl]-4-[(5-4-[(3,5-dimethoxybenzyl)oxy]-3,5-dimethylphenylthiophen-2-yl)methyl]-2,4-dihydro-3H-1,2,4-triazol-3-one hydrochloride], for which the half-inhibitory concentration (IC50) in experiment [1] is 2.1 nM; in experiment [2], 350 nM; in experiment [3] it was 220 nM; in experiment [4] it was 13000 nM.
